# Source: patent US20260232652A1, “COMBINATIONS OF DGK (DIACYLGLYCEROL KINASE) INHIBITORS” (priority 2023, published 2026)
# “And” between values parts separate entries of the source, which are not always exact repeats. Identical values can stand only once.
# Columns and labels:
# [1] = tested on: glioblastoma multiforme (GBM) cells; conditions: concurrent administration; cited from earlier work
# human DGKzeta = molecular target: T1, human DGKzeta (Homo sapiens, UniProt Q13574); experiment: Human DGKzeta kinase activity inhibition assay (ADP-Glo); format: biochemical; conditions: read-out: IC50 hDGKz
# T1 construct: C-terminally FLAG-tagged, recombinant full-length human DGKζ; made in house; host or cells: baculovirus-infected insect cells
# T1 sequence (Q13574 whole entry): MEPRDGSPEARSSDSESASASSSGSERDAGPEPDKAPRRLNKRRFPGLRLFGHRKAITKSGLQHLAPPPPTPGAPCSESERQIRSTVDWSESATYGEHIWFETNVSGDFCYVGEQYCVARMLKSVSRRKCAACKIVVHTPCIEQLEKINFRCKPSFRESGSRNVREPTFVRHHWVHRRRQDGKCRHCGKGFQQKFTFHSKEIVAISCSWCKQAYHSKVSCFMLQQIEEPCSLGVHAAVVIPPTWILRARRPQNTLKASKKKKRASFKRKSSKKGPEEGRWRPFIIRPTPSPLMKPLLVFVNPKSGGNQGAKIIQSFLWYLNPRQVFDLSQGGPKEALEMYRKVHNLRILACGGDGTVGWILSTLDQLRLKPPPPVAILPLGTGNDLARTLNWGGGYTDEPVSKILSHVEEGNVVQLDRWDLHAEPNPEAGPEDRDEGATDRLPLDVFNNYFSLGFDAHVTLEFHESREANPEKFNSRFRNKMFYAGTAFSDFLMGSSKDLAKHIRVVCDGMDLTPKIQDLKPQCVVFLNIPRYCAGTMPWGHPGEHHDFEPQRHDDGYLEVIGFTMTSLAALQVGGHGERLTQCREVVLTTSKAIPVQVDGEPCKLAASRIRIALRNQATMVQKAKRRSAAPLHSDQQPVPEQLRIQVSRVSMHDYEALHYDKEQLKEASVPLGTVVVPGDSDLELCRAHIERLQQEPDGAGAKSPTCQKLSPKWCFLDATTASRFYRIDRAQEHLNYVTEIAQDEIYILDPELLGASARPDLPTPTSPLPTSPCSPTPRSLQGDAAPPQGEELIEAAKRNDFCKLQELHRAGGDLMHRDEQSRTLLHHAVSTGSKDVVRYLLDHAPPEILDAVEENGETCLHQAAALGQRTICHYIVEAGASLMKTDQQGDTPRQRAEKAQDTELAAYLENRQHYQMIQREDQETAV
# Procedure: Human diacylglycerol kinase zeta (DGKζ) inhibitory activity of compounds of the present invention was quantified employing the human DGKζ kinase activity assay as described in the following paragraphs. In essence, the enzyme activity was measured by quantification of the adenosine-di-phosphate (ADP) generated as a co-product of the enzyme reaction via the “ADP-Glo™ Kinase Assay” kit from the company Promega. This detection system works as follows: In a first step the adenosine-tri-phosphate (ATP) not consumed in the kinase reaction is quantitatively converted to cyclic adenosine-mono-phosphate (cAMP) employing an adenylate cyclase (“ADP-Glo-reagent”), then the adenylate cyclase is stopped and the ADP generated in the kinase reaction is converted to ATP, which subsequently generates in a luciferase-based reaction a glow-luminescence signal (“Kinase Detection Reagent”).
# (§1) C-terminally FLAG-tagged, recombinant full-length human DGKζ (inhouse expressed in baculovirus infected insect cells, purified using anti-Flag pulldown and size exclusion chromatography) was used as enzyme. As an alternative, commercially available enzyme by Carnabio can be used. As substrate for the kinase, 1,2-dioleoyl-sn-glycerol, reconstituted in octyl-β-D-glucopyranoside micelles, was used. […] Then 35 volumes of 50 mM MOPS buffer (pH 7.4) were added to yield a solution of 0.28 mM 1,2 dioleoyl-sn-glycerol and 200 mM octyl-β-D-glucopyranoside, which was aliquoted, flash-frozen in liquid nitrogen, and stored at −20° C. until use.
# For the assay 50 nl of a 100-fold concentrated solution of the test compound in dimethyl sulfoxide (DMSO, Sigma) was pipetted into either a white 1536-well or a white low-volume 384-well microtiter plate (both Greiner Bio-One, Frickenhausen, Germany). […] The concentration of DGKζ was adjusted depending of the activity of the enzyme lot and was chosen appropriate to have the assay in the linear range, a typical concentration is about 0.1 nM. The reaction was stopped by the addition of 2.5 μL of “ADP-Glo-reagent” (1 to 1.5 diluted with water) and the resulting mixture was incubated at 22° C. for 1 h to convert the ATP not consumed in the kinase reaction completely to cAMP. […] The amount of emitted light was taken as a measure for the amount of ADP generated and thereby for the activity of the DGKζ.
# human DGKalpha = molecular target: T2, human DGKalpha (Homo sapiens, UniProt P23743); experiment: Human DGKalpha kinase activity inhibition assay (ADP-Glo); format: biochemical; conditions: read-out: IC50 hDGKa
# T2 construct: made in house; host or cells: baculovirus-infected Sf9 insect cells
# T2 sequence (P23743 whole entry): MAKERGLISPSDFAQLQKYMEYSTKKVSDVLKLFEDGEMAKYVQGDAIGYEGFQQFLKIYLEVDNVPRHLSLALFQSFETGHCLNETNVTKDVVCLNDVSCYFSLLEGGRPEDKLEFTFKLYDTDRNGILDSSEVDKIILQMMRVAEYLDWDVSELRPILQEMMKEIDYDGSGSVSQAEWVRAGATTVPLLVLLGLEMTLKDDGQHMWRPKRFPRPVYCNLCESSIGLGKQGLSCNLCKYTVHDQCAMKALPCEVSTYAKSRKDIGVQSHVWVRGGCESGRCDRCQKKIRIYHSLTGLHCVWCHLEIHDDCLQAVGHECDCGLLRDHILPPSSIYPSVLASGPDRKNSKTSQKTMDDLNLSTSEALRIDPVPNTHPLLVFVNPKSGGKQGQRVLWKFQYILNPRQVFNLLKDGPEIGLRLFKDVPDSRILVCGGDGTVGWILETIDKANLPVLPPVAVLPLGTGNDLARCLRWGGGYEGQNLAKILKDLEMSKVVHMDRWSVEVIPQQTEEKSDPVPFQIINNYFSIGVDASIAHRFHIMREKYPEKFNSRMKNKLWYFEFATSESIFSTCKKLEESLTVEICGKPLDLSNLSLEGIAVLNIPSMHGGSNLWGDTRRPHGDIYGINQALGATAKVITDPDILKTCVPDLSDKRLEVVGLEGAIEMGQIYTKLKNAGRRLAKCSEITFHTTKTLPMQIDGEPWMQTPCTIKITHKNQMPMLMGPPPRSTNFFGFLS
# Procedure: Human DGKalpha inhibitory activity of compounds of the present invention was quantified employing the human DGKalpha kinase activity assay as described in the following paragraphs. In essence, the enzyme activity was measured by quantification of the adenosine-di-phosphate (ADP) generated as a co-product of the enzyme reaction via the “ADP-Glo™ Kinase Assay” kit from the company Promega. This detection system works as follows: In a first step the ATP not consumed in the kinase reaction is quantitatively converted to cAMP employing an adenylate cyclase (“ADP-Glo-reagent”), then the adenylate cyclase is stopped and the ADP generated in the kinase reaction converted to ATP, which subsequently generates in a luciferase-based reaction a glow-luminescence signal (“Kinase Detection Reagent”).
# as §1, with “DGKalpha (expressed” for “DGKζ (inhouse expressed”, “chromatography as described below, DGKa_hu_1)” for “chromatography)”, “As” for “As an alternative, commercially available enzyme by Carnabio can be used. As”, “kinase” for “kinase,”
# For the assay 50 nl of a 100-fold concentrated solution of the test compound in dimethyl sulfoxide (DMSO, Sigma) was pipetted into either a white 1536-well or a white low-volume 384-well microtiter plate (both Greiner Bio-One, Frickenhausen, Germany). […] The concentration of DGKα was adjusted depending of the activity of the enzyme lot and was chosen appropriate to have the assay in the linear range, a typical concentration is about 0.1 nM. The reaction was stopped by the addition of […] of “ADP-Glo-reagent” (1 to 1.5 diluted with water) and the resulting mixture was incubated at 22° C. for 1 h to convert the ATP not consumed in the kinase reaction completely to cAMP. […] The amount of emitted light was taken as a measure for the amount of ADP generated and thereby for the activity of the DGKα.
IC50 (human DGKzeta),IC50 (human DGKalpha),Structure (SMILES),growth of intracranially injected GBM tumors [1]
> 20000 nM,–,"COc1ccc(C2CCN(c3c(C(N)=O)c(=O)n(C)c4ccccc34)CC2)cc1 [Example 112, 4-[4-(4-methoxyphenyl)piperidin-1-yl]-1-methyl-2-oxo-1,2-dihydroquinoline-3-carboxamide]",–
> 20000 nM,–,"Cn1c(=O)c(C#N)c(N2CCC(c3nc4ccc(F)cc4o3)CC2)c2ccccc21 [Example 4, 4-[4-(6-fluoro-1,3-benzoxazol-2-yl)piperidin-1-yl]-1-methyl-2-oxo-1,2-dihydroquinoline-3-carbonitrile]",–
> 20000 nM,–,"Cc1ccc2oc(C3CCN(c4c(C(N)=O)c(=O)n(C)c5ccccc45)CC3)nc2c1 [Example 107, 1-methyl-4-[4-(5-methyl-1,3-benzoxazol-2-yl)piperidin-1-yl]-2-oxo-1,2-dihydroquinoline-3-carboxamide]",–
> 20000 nM,–,"CNC(=O)c1c(N2CCC(c3nc4cc(C)ccc4o3)CC2)c2ccccc2n(C)c1=O [Example 448, N,1-dimethyl-4-[4-(5-methyl-1,3-benzoxazol-2-yl)piperidin-1-yl]-2-oxo-1,2-dihydroquinoline-3-carboxamide]",–

# Continued, compound first:
Structure (SMILES),IC50 (human DGKzeta),IC50 (human DGKalpha),growth of intracranially injected GBM tumors [1]
Cc1nc2sccn2c(=O)c1CCN1CCC(=C(c2ccccc2)c2ccc(F)cc2)CC1 [Example R59022],–,–,decreased growth of intracranially injected GBM tumors
"CC(C(N)=O)N(c1ccc(F)cc1)c1nc(N)c(C(=O)c2ccc(OC(F)(F)F)cc2)s1 (single isomer, unassigned) [Example 40.2, 2-(N-[4-amino-5-[4-(trifluoromethoxy)benzoyl]thiazol-2-yl]-4-fluoro-anilino)propanamide]",7.1 nM,> 12200 nM,–
"CC(C(N)=O)N(c1ccc(F)cc1)c1nc(N)c(C(=O)c2ccc(OC(F)F)cc2)s1 (single isomer, unassigned) [Example 44.2, 2-(N-[4-amino-5-[4-(difluoromethoxy)benzoyl]thiazol-2-yl]-4-fluoro-anilino)propanamide]",3.9 nM and 6.7 nM,> 20000 nM,–
"COc1ccc(C(=O)c2sc(N(c3ccc(F)c(F)c3)C(C)C(N)=O)nc2N)cc1 (single isomer, unassigned) [Example 51.1, 2-(N-[4-amino-5-(4-methoxybenzoyl)thiazol-2-yl]-3,4-difluoro-anilino)propanamide]",8.2 nM and 8.9 nM,> 13300 nM,–
"CC(C(N)=O)N(c1ccc(F)cc1)c1nc(N)c(C(=O)c2ccc(C(F)(F)F)nc2)s1 (single isomer, unassigned) [Example 29.2, 2-(N-[4-amino-5-[6-(trifluoromethyl)pyridine-3-carbonyl]thiazol-2-yl]-4-fluoro-anilino)propanamide]",46 nM,> 15000 nM,–
